In US20260347361A1, “LRRK2 INHIBITORS AND USES THEREOF” (NEURON23, INC, priority 2022, published 2026):

Biological target: T1, wt human LRRK2 (Homo sapiens, UniProt Q5S007)
T1 construct: wt human LRRK2, catalytic site, catalytic site (ThermoFisher/USA); purchased ThermoFisher
Assay: TR-FRET LanthaScreen Tb Kinase Activity Assay, inhibition of LRRK2 kinase
Assay type: biochemical
Settings: 2 nM wt human LRRK2, 400 nM fluorescein-ERM (LRRKtide) peptide, 38 µM ATP, 15 min pre-incubation, 120 min at room temperature
Experimental: In Table 2, activity is provided as the following: “+++”=IC50 less than 50 nM; “++”=IC50 between 50 nM and 200 nM; “+”=IC50> or =200 nM.
The compounds listed in Table 2 were tested for their inhibitory effect on LRRK2 kinase according to the following procedures.
The protocol for basic TR-FRET LanthaScreen Tb Kinase Activity Assay inhibitor studies were as follows. LanthaScreen Kinase Activity Assays (ThermoFisher/USA) to evaluate inhibitors were performed by addition of 100 nl of test compound in corresponding DMSO dilutions/5 μl of kinase/fluorescein-ERM(LRRKtide) peptide mixture, Compound & kinase were pre-incubated for 15 minutes, then 5 μl of ATP into 384 well small volume plates. After incubation for 120 minutes at room temperature, the detection reagents containing Tb-anti-pLRRKtide antibody were added to monitor phosphorylation level of peptide. Then, after 60 min minutes incubation at room temperature plates were read in Envision. Data analysis of emission ratios was according to LanthaScreen Tb Kinase Activity Assay protocol.
Kinase and assay components were adjusted to final concentrations according to the kit protocol. For LRRK2: 2 nM wt human LRRK2, catalytic site, catalytic site (ThermoFisher/USA), 400 nM peptide, 38 µM ATP in 1× Kinase Buffer A.
Basic protocol for TR-FRET LanthaScreen Tb Kinase Activity Assay inhibitor studies involved two steps:
Enzymatic step: Addition of […] of test compound in corresponding DMSO dilutions, 5 μL of kinase/substrate mixture, 5 μL of ATP into 384 well small volume plates. Incubation for 120 minutes at room temperature.
Detection step: Addition of 10 μL EDTA & antibody, read plate after 60 minutes. Data analysis of emission ratios according to KinEASE assay protocol.
Kinase and assay components were adjusted to final concentrations according to the kit protocol.

T1 sequence (Q5S007 970-2527 limits assumed): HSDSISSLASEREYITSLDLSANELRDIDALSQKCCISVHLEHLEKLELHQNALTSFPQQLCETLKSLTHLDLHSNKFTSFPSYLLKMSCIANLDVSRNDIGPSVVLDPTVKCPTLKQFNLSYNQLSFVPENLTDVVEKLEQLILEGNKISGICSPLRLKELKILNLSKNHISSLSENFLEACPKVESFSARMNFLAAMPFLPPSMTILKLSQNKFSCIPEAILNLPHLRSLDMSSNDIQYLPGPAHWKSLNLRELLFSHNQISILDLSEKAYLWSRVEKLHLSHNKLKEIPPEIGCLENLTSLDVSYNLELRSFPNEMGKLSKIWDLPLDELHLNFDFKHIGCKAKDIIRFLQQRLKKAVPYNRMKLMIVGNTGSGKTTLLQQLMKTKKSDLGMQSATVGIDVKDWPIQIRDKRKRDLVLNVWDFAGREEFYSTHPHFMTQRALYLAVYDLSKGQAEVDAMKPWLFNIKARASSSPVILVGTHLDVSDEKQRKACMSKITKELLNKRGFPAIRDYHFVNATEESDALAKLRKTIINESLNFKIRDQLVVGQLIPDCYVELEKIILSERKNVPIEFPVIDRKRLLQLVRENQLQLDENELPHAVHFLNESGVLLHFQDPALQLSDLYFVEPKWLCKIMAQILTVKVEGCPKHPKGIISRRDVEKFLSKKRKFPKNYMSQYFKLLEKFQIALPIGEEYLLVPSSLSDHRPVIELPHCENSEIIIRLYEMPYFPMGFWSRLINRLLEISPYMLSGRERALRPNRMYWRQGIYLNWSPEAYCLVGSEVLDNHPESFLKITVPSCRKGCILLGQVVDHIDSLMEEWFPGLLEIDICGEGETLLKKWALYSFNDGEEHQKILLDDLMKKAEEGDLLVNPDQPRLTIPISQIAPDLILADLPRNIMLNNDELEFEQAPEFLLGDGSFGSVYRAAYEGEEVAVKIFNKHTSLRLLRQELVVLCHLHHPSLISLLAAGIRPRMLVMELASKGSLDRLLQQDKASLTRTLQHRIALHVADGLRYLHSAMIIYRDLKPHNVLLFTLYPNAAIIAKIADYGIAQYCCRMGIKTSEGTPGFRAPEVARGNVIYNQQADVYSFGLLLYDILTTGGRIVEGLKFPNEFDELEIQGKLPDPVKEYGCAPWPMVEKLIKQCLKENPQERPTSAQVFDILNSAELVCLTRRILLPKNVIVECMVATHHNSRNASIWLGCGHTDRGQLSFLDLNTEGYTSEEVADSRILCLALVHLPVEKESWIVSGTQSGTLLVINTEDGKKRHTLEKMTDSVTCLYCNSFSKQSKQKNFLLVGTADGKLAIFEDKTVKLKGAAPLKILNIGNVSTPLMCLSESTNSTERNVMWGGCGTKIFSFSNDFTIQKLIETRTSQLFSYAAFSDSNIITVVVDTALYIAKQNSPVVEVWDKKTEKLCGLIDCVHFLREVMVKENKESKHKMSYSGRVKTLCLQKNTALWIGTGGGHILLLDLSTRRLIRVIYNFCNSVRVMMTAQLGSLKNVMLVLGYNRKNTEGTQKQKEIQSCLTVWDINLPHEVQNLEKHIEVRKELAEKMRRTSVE

IC50 [µM] | Structure (SMILES)
< 0.05 | O=S1(=O)CCN(c2ccc3c(c2)-n2ncc(Cl)c2N=C(c2c(F)cccc2F)N3)CC1
< 0.05 | OC1CCN(c2ccc3c(c2)-n2ncc(Cl)c2N=C(c2c(F)cccc2F)N3)C1 (racemic) [1-[3-chloro-5-(2,6-difluorophenyl)-6H-pyrazolo[1,5-a][1,3,5]benzotriazepin-9-yl]pyrrolidin-3-ol]
< 0.05 | COC1CCN(c2ccc3c(c2)-n2ncc(Cl)c2N=C(c2c(F)cccc2F)N3)C1 (racemic) [3-chloro-5-(2,6-difluorophenyl)-9-(3-methoxypyrrolidin-1-yl)-6H-pyrazolo[1,5-a][1,3,5]benzotriazepine]
< 0.05 | Fc1cccc(F)c1C1=Nc2c(Cl)cnn2-c2cc(N3CC4CC3CO4)ccc2N1 (racemic) [5-(3-chloro-5-(2,6-difluorophenyl)-6H-benzo[f]pyrazolo[1,5-a][1,3,5]triazepin-9-yl)-2-oxa-5-azabicyclo[2.2.1]heptane]
< 0.05 | Fc1cccc(F)c1C1=Nc2c(Cl)cnn2-c2cc(N3CCC34COC4)ccc2N1 [1-[3-chloro-5-(2,6-difluorophenyl)-6H-pyrazolo[1,5-a][1,3,5]benzotriazepin-9-yl]-6-oxa-1-azaspiro[3.3]heptane]
< 0.05 | Fc1cccc(F)c1C1=Nc2c(Cl)cnn2-c2cc(N3CC4CC(C3)O4)ccc2N1 [3-[3-chloro-5-(2,6-difluorophenyl)-6H-pyrazolo [1,5-a][1,3,5]benzotriazepin-9-yl]-6-oxa-3-azabicyclo [3.1.1]heptane]
< 0.05 | NC(=O)c1ccc2c(c1)-n1ncc(Cl)c1N=C(c1c(F)cccc1F)N2 [3-chloro-5-(2,6-difluorophenyl)-6H-pyrazolo[1,5-a][1,3,5]benzotriazepine-9-carboxamide]
< 0.05 | Fc1cccc(F)c1C1=Nc2c(Cl)cnn2-c2cc(N3CCC(F)(F)C3)ccc2N1 [3-chloro-5-(2,6-difluorophenyl)-9-(3,3-difluoropyrrolidin-1-yl)-6H-pyrazolo[1,5-a][1,3,5]benzotriazepine]
< 0.05 | Fc1cccc(F)c1C1=Nc2c(Cl)cnn2-c2cc(N3CC(F)C3)ccc2N1 [3-chloro-5-(2,6-difluorophenyl)-9-(3-fluoroazetidin-1-yl)-6H-pyrazolo[1,5-a][1,3,5]benzotriazepine]
< 0.05 | COC1CN(c2ccc3c(c2)-n2ncc(Cl)c2N=C(c2c(F)cccc2F)N3)C1 [3-chloro-5-(2,6-difluorophenyl)-9-(3-methoxyazetidin-1-yl)-6H-pyrazolo[1,5-a][1,3,5]benzotriazepine]
< 0.05 | CN1CCN(c2ccc3c(c2)-n2ncc(Cl)c2N=C(c2c(F)cccc2F)N3)CC1 [3-chloro-5-(2,6-difluorophenyl)-9-(4-methylpiperazin-1-yl)-6H-pyrazolo[1,5-a][1,3,5]benzotriazepine]
< 0.05 | Fc1cccc(F)c1C1=Nc2c(Cl)cnn2-c2cc(N3CC4(CC(F)C4)C3)ccc2N1 [3-chloro-5-(2,6-difluorophenyl)-9-(6-fluoro-2-azaspiro[3.3]heptan-2-yl)-6H-pyrazolo[1,5-a][1,3,5]benzotriazepine]
< 0.05 | Fc1cccc(F)c1C1=Nc2c(Cl)cnn2-c2cc(N3CCCC3)ccc2N1 [3-chloro-5-(2,6-difluorophenyl)-9-(pyrrolidin-1-yl)-6H-benzo[f]pyrazolo[1,5-a][1,3,5]triazepine]
< 0.05 | Fc1cccc(F)c1C1=Nc2c(Cl)cnn2-c2cc(N3CC[C@@H](F)C3)ccc2N1 [3-chloro-5-(2,6-difluorophenyl)-9-[(3R)-3-fluoropyrrolidin-1-yl]-6H-pyrazolo[1,5-a][1,3,5]benzotriazepine]
< 0.05 | Fc1cccc(F)c1C1=Nc2c(Cl)cnn2-c2cc(N3CC[C@H](F)C3)ccc2N1 [3-chloro-5-(2,6-difluorophenyl)-9-[(3S)-3-fluoropyrrolidin-1-yl]-6H-pyrazolo[1,5-a][1,3,5]benzotriazepine]
< 0.05 | Fc1cccc(F)c1C1=Nc2c(Cl)cnn2-c2cc(N3CCNCC3)ccc2N1 [3-chloro-5-(2,6-difluorophenyl)-9-piperazin-1-yl-6H-pyrazolo[1,5-a][1,3,5]benzotriazepine]
< 0.05 | CONC(=O)c1ccc2c(c1)-n1ncc(Cl)c1N=C(c1c(F)cccc1F)N2 [3-chloro-5-(2,6-difluorophenyl)-N-methoxy-6H-pyrazolo[1,5-a][1,3,5]benzotriazepine-9-carboxamide]
< 0.05 | CNC(=O)c1ccc2c(c1)-n1ncc(Cl)c1N=C(c1c(F)cccc1F)N2 [3-chloro-5-(2,6-difluorophenyl)-N-methyl-6H-pyrazolo[1,5-a][1,3,5]benzotriazepine-9-carboxamide]
< 0.05 | Fc1cccc(F)c1C1=Nc2c(Cl)cnn2-c2cc(N3CCNC4(CC4)C3)ccc2N1 [3-chloro-9-(4,7-diazaspiro[2.5]octan-7-yl)-5-(2,6-difluorophenyl)-6H-pyrazolo[1,5-a][1,3,5]benzotriazepine]
< 0.05 | O=C(NCC1CC1)c1ccc2c(c1)-n1ncc(Cl)c1N=C(c1c(F)cccc1F)N2 [3-chloro-N-(cyclopropylmethyl)-5-(2,6-difluorophenyl)-6H-pyrazolo[1,5-a][1,3,5]benzotriazepine-9-carboxamide]
< 0.05 | O=C(NC1CCC1)c1ccc2c(c1)-n1ncc(Cl)c1N=C(c1c(F)cccc1F)N2 [3-chloro-N-cyclobutyl-5-(2,6-difluorophenyl)-6H-pyrazolo[1,5-a][1,3,5]benzotriazepine-9-carboxamide]

The remaining lines, values behind:

Structure (SMILES) | IC50 [µM]
Fc1cccc(F)c1C1=Nc2c(Cl)cnn2-c2cc(-c3cn[nH]c3)ccc2N1 | < 0.05
CC(C)S(=O)(=O)NC(=O)c1ccc2c(c1)-n1ncc(Cl)c1N=C(c1c(F)cccc1F)N2 | > 0.2
Fc1cccc(F)c1C1=Nc2c(Cl)cnn2-c2cc(N3CCOCC3)cnc2N1 | < 0.05
Fc1cccc(F)c1C1=Nc2c(Cl)cnn2-c2cc(N3CC4CCC(C3)O4)ncc2N1 [3-(3-Chloro-5-(2,6-difluorophenyl)-6H-pyrazolo[1,5-a]pyrido[3,4-f][1,3,5]triazepin-9-yl)-8-oxa-3-azabicyclo[3.2.1]octane] | < 0.05
O=C(NO)c1ccc2c(c1)-n1ncc(Cl)c1N=C(c1c(F)cccc1F)N2 [3-chloro-5-(2,6-difluorophenyl)-6H-pyrazolo[1,5-a][1,3,5]benzotriazepine-9-carbohydroxamic acid] | < 0.05
Cn1cc(-c2ccc3c(c2)-n2ncc(Cl)c2N=C(c2c(F)cccc2F)N3)cn1 [3-chloro-5-(2,6-difluorophenyl)-9-(1-methylpyrazol-4-yl)-6H-pyrazolo[1,5-a][1,3,5]benzotriazepine] | < 0.05
CN(C)C(=O)c1ccc2c(c1)-n1ncc(Cl)c1N=C(c1c(F)cccc1F)N2 [3-chloro-5-(2,6-difluorophenyl)-N,N-dimethyl-6H-pyrazolo[1,5-a][1,3,5]benzotriazepine-9-carboxamide] | 0.05 to 0.2
O=C(NCCF)c1ccc2c(c1)-n1ncc(Cl)c1N=C(c1c(F)cccc1F)N2 [3-chloro-5-(2,6-difluorophenyl)-N-(2-fluoroethyl)-6H-pyrazolo[1,5-a][1,3,5]benzotriazepine-9-carboxamide] | < 0.05
O=C(NCCO)c1ccc2c(c1)-n1ncc(Cl)c1N=C(c1c(F)cccc1F)N2 [3-chloro-5-(2,6-difluorophenyl)-N-(2-hydroxyethyl)-6H-pyrazolo[1,5-a][1,3,5]benzotriazepine-9-carboxamide] | < 0.05
COCCNC(=O)c1ccc2c(c1)-n1ncc(Cl)c1N=C(c1c(F)cccc1F)N2 [3-chloro-5-(2,6-difluorophenyl)-N-(2-methoxyethyl)-6H-pyrazolo[1,5-a][1,3,5]benzotriazepine-9-carboxamide] | < 0.05
O=C(NC1COC1)c1ccc2c(c1)-n1ncc(Cl)c1N=C(c1c(F)cccc1F)N2 [3-chloro-5-(2,6-difluorophenyl)-N-(oxetan-3-yl)-6H-benzo[f]pyrazolo[1,5-a][1,3,5]triazepine-9-carboxamide] | < 0.05
CC(C)NC(=O)c1ccc2c(c1)-n1ncc(Cl)c1N=C(c1c(F)cccc1F)N2 [3-chloro-5-(2,6-difluorophenyl)-N-isopropyl-6H-pyrazolo[1,5-a][1,3,5]benzotriazepine-9-carboxamide] | < 0.05
O=C(NC1CCCC1)c1ccc2c(c1)-n1ncc(Cl)c1N=C(c1c(F)cccc1F)N2 [3-chloro-N-cyclopentyl-5-(2,6-difluorophenyl)-6H-pyrazolo[1,5-a][1,3,5]benzotriazepine-9-carboxamide] | < 0.05
Fc1cccc(F)c1C1=Nc2c(Cl)cnn2-c2cc(N3CCOCC3)ncc2N1 [4-(3-Chloro-5-(2,6-difluorophenyl)-6H-pyrazolo[1,5-a]pyrido[3,4-f][1,3,5]triazepin-9-yl)morpholine] | < 0.05
Fc1cccc(F)c1C1=Nc2c(Br)cnn2-c2cc(N3CCOCC3)ncc2N1 [4-(3-bromo-5-(2,6-difluorophenyl)-6H-pyrazolo[1,5-a]pyrido[3,4-f][1,3,5]triazepin-9-yl)morpholine] | < 0.05
